Measurements published in PubChem BioAssay (NCI).
Values joined by “and” are separate entries in the source; they are usually repeats but may differ in a detail not shown here. Identical values can stand only once.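 Dose response: 5 concentrations. Exposure: 48 h. Format: 96-well plates. Endpoint: linear interpolation; highest concentration if not reached. Here, GI50 denotes the concentration required for 50% inhibition of growth. TGI: concentration producing complete growth inhibition.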

Legend:
Experiment in all cases: growth of human tumour cells (NCI), 48 h
[1] = tested on: UACC-62 melanoma
[2] = tested on: SF-539 CNS
[3] = tested on: MOLT-4 leukemia
[4] = tested on: NCI-H522 lung
[5] = tested on: A549 NSCLC
[6] = tested on: EKVX NSCLC
[7] = tested on: HCT-116 colon
[8] = tested on: SK-MEL-2 melanoma
[9] = tested on: ACHN renal
[10] = tested on: RXF 393 renal

SMILES	GI50 [1]	TGI [1]	GI50 [2]	TGI [2]	GI50 [3]	TGI [3]	GI50 [4]	TGI [4]	GI50 [5]	TGI [5]	GI50 [6]	TGI [6]	GI50 [7]	TGI [7]	GI50 [8]	TGI [8]	GI50 [9]	TGI [9]	GI50 [10]	TGI [10]
Cc1cc2c(cc1Cl)SC1=NN(C)C(c3ccccc3O)N1S2(=O)=O (stereo unspecified)	73.8 µM	> 100 µM	32.1 µM	> 100 µM	> 100 µM	> 100 µM	> 100 µM	> 100 µM	86.2 µM	> 100 µM	81.7 µM	> 100 µM	44.1 µM	> 100 µM	> 100 µM	> 100 µM	> 100 µM	> 100 µM	–	–
Cc1cc(N)c2ccccc2[n+]1CCCCCCCCCC[n+]1c(C)cc(N)c2ccccc21	0.189 µM	–	0.241 µM and 1.56 µM	1.44 µM and 9.96 µM and 3.8 µM	0.549 µM and 1.41 µM	1.38 µM and 3.23 µM and 4.08 µM	1.38 µM	4.01 µM and 4.43 µM	0.116 µM	6.88 µM and 50 µM	–	> 50 µM and 49.4 µM and 26.9 µM	0.28 µM and 2 µM	–	0.674 µM and 1.4 µM	1.93 µM and 9.03 µM and 3.78 µM	–	> 50 µM and 7.15 µM and 17.9 µM	–	–
COc1ncnc2c(-c3ccco3)cn(COCc3ccccc3)c12	8.2 µM	> 50 µM	> 50 µM	> 50 µM	–	–	9.97 µM	> 50 µM	> 50 µM	> 50 µM	11.5 µM	> 50 µM	3.76 µM	> 50 µM	48.8 µM	> 50 µM	> 50 µM	> 50 µM	> 50 µM	> 50 µM
Cc1ccc(OCCCCCCNCCO)c(C)c1	12.1 µM	25.7 µM	14.7 µM	28.6 µM	16.3 µM	36.8 µM	14.7 µM	30.1 µM	17.8 µM	34.8 µM	–	–	14.2 µM	31.6 µM	19.8 µM	37.6 µM	13.8 µM	27.8 µM	6.53 µM	20.8 µM
CCCCCCN1C(=O)CN=C1Nc1ccc2cc3ccc(NC4=NCC(=O)N4CCCCCC)cc3nc2c1	11.7 µM	30 µM	1.81 µM	3.63 µM	–	–	1.79 µM	3.91 µM	2.03 µM	3.96 µM	1.89 µM	5.22 µM	1.19 µM	2.48 µM	2.79 µM	8.45 µM	1.76 µM	3.42 µM	1.52 µM	3.22 µM
COc1ccc(N(Cc2cc(OC)c(OC)c(OC)c2)C2OC(=O)c3ccccc32)cc1 (stereo unspecified)	0.498 µM	> 100 µM	0.317 µM	1.24 µM	0.661 µM	> 100 µM	0.286 µM	3.11 µM	0.626 µM	> 100 µM	–	–	0.426 µM	> 100 µM	–	–	0.69 µM	> 100 µM	0.612 µM	> 100 µM
C/C(=N/Nc1ccc([N+](=O)[O-])cc1[N+](=O)[O-])C(CC(C(=O)Nc1ccccc1C)/C(C)=N\Nc1ccc([N+](=O)[O-])cc1[N+](=O)[O-])C(=O)Nc1ccccc1C (stereo unspecified)	–	69.4 µM	–	25.8 µM	–	–	–	41.8 µM	–	64.6 µM	–	38 µM	–	26.4 µM	–	28.2 µM	–	> 49.6 µM	–	24.3 µM
COc1ccc(S(=O)(=O)NCCNc2nccc(-c3c(-c4ccccc4)nc4sccn34)n2)cc1	1.17 µM	> 100 µM	13.7 µM	> 100 µM	–	–	4.64 µM	> 100 µM	1.61 µM	> 100 µM	7.11 µM	> 100 µM	1.58 µM	> 100 µM	4.98 µM	> 100 µM	2.02 µM	> 100 µM	5.71 µM	91 µM
O=C1/C(=C/c2ccccc2)CN(C(=O)Oc2ccc([N+](=O)[O-])cc2)C/C1=C\c1ccccc1	3.81 µM	–	–	–	1.21 µM	4.83 µM and 4.45 µM	2.15 µM	8.54 µM and 5.13 µM	–	–	–	–	0.303 µM	1.65 µM and 1.08 µM	–	29.2 µM	4.94 µM	–	1.59 µM	4.51 µM
O=C1CC2Sc3ccccc3N=C2N1c1ccc(Cl)cc1Cl (stereo unspecified)	–	> 100 µM	–	–	–	> 100 µM	–	–	–	> 100 µM	–	> 100 µM	–	> 100 µM	–	> 100 µM	–	> 100 µM	–	> 100 µM
O=C1c2cccc3cccc(c23)C(=O)N1CCCN1CCN(CCCN2C(=O)c3cccc4cccc(c34)C2=O)CC1	–	> 100 µM	–	> 100 µM	–	> 100 µM	–	–	–	> 100 µM	–	> 100 µM	–	> 100 µM	–	> 100 µM	–	> 100 µM	–	> 100 µM
COC(=O)C1=C(O)C(C(=O)OC)[C@@]2(O)[C@@H](C(=O)OC)C(c3ccc(OC(=O)C(CC(C)C)NC(C)=O)cc3)C[C@@H]1[C@@H]2C(=O)OC (stereo partly specified)	23.2 µM	63.8 µM	–	–	48.3 µM	97.2 µM	60.9 µM	> 100 µM	38.3 µM	> 100 µM	39.7 µM	> 100 µM	29.3 µM	> 100 µM	81.9 µM	> 100 µM	41.9 µM	> 100 µM	> 100 µM	> 100 µM
CC(C)C[C@H](NC(=O)[C@@H](O)[C@H](N)Cc1ccccc1)C(=O)O	–	> 100 µM	–	> 100 µM	–	> 100 µM	> 100 µM	> 100 µM	–	> 100 µM	–	–	–	> 100 µM	–	> 100 µM	–	> 100 µM	–	> 100 µM
Cn1cc(-c2nn3cc(-c4cccs4)nc3s2)c2cc(F)ccc21	1.93 µM	> 100 µM	2.18 µM	7.54 µM	–	–	1.62 µM	24.5 µM	2.85 µM	95.6 µM	2.51 µM	> 100 µM	2.04 µM	26.4 µM	1.59 µM	7.29 µM	3.39 µM	86.8 µM	1.59 µM	5.73 µM
O=c1[nH]c(-c2ccccn2)nc2sc3c(c12)CCCCCC3	5.51 µM	> 100 µM	7.84 µM	> 100 µM	2.41 µM	> 100 µM	> 100 µM	> 100 µM	2.57 µM	> 100 µM	–	–	1.37 µM	> 100 µM	> 100 µM	> 100 µM	5.19 µM	> 100 µM	7.42 µM	> 100 µM
N#CC(=C=[N-])[n+]1ccc(Cl)cc1	–	29.9 µM	–	43.2 µM	–	> 100 µM	–	9.55 µM	–	> 100 µM	–	33.8 µM	–	31.2 µM	–	–	–	–	–	31.5 µM

SMILES	GI50 [1]	TGI [1]	GI50 [2]	TGI [2]	GI50 [3]	TGI [3]	GI50 [4]	TGI [4]	GI50 [5]	TGI [5]	GI50 [6]	TGI [6]	GI50 [7]	TGI [7]	GI50 [8]	TGI [8]	GI50 [9]	TGI [9]	GI50 [10]	TGI [10]
C#Cc1ccc(-n2c(/C=C/c3cc(OC)c(OC)c(OC)c3)nc3ncccc3c2=O)cc1	6.9 µM	> 100 µM	4.57 µM	37.7 µM	–	–	2.33 µM	6.29 µM	5.65 µM	> 100 µM	–	–	5.17 µM	> 100 µM	4.54 µM	22.1 µM	6.63 µM	> 100 µM	7.04 µM	> 100 µM
CCOc1cccnc1/C=N/NC(N)=S	–	–	2.8 µM	9.59 µM	3.13 µM	10.4 µM	3.05 µM	> 100 µM	3.34 µM	> 100 µM	–	–	4.26 µM	> 100 µM	9.93 µM	> 100 µM	4.01 µM	> 100 µM	–	–
CC1(C)CC2(C)OC2C2(C1)N=NC(=Nc1ccccc1)O2 (stereo unspecified)	3.76 µM	16 µM	7.94 µM	20.9 µM	2.63 µM	9.96 µM	1.61 µM	3.33 µM	11 µM	39.5 µM	–	–	1.29 µM	6.45 µM	10.5 µM	24.3 µM	2 µM	6.12 µM	2.19 µM	6.26 µM
O=C(CN=Cc1cccs1)CSC(c1ccccc1)c1ccccc1	16.2 µM	36.9 µM	26.6 µM	71.1 µM	18.5 µM	69.1 µM	–	–	21.7 µM	76.1 µM	26.2 µM	96.9 µM	16.4 µM	40.7 µM	19 µM	34.8 µM	28.8 µM	79.6 µM	17.1 µM	44.1 µM
COC(=O)C1CCC(=NC2c3ccccc3-c3ccccc32)N1 (stereo unspecified)	–	> 100 µM	–	–	–	> 100 µM	–	58.6 µM	–	> 100 µM	–	> 100 µM	–	> 100 µM	–	> 100 µM	–	> 100 µM	–	–
Clc1ccccc1C1=NN(c2ccccc2)C2c3cc(Br)ccc3OCC12 (stereo unspecified)	–	–	–	> 100 µM	–	> 100 µM	–	> 100 µM	–	> 100 µM	–	> 100 µM	–	> 100 µM	–	> 100 µM	–	> 100 µM	–	> 100 µM
CCOC(=O)C1=C(c2ccccc2)N(Cc2ccccc2)C2(O)C=CC(=O)C3C(=O)N(c4ccccc4)C(=O)C132 (stereo unspecified)	1.63 µM	3.16 µM	1.91 µM	3.76 µM	1.89 µM	5.01 µM	–	–	2.96 µM	11.4 µM	2.43 µM	6.51 µM	–	–	–	–	1.9 µM	4.23 µM	1.91 µM	3.75 µM
CCCCCCCCCCCCCCCC(=O)N[C@H]1CCc2cc(OC)c(OC)c(OC)c2-c2ccc(SC)c(=O)cc21	1.21 µM	13.4 µM and 11.8 µM	1.24 µM	2.08 µM and 3.64 µM	3.21 µM	19.6 µM and 13.1 µM	–	–	3.63 µM	13.1 µM and 14.4 µM	4.22 µM	–	1.04 µM	3.67 µM and 3.49 µM	–	4.46 µM	3.88 µM	22.4 µM and 19.7 µM	–	14.8 µM
O=C1c2ccccc2C(=O)c2c1ccc1c3ccccc3n(Cc3ccccc3)c21	–	> 100 µM	–	> 100 µM	–	> 100 µM	–	> 100 µM	–	> 100 µM	–	> 100 µM	–	> 100 µM	–	> 100 µM	–	> 100 µM	–	–
CCCCCCCCCCCCCCCCCC1=NC(C)(C)CN1CCO	1.68 µM	3.18 µM	1.75 µM	3.15 µM	1.96 µM	4.73 µM	1.55 µM	3.15 µM	–	–	3.8 µM	18.6 µM	1.63 µM	3.19 µM	1.97 µM	3.63 µM	1.58 µM	2.99 µM	–	–
C[C@]12CC[C@@H]3c4ccc(O)cc4CC[C@H]3[C@@H]1CC[C@@H]2NS(=O)(=O)c1ccc(-c2ccccc2)cc1	4.2 µM	20 µM	3.91 µM	15.7 µM	3.47 µM	> 100 µM	4.26 µM	27.2 µM	3.26 µM	> 100 µM	–	–	2.88 µM	11.4 µM	3.78 µM	13.6 µM	2.98 µM	20.1 µM	2.58 µM	8.08 µM
CCC1NCC(=O)c2c1[nH]c1ccccc21 (stereo unspecified)	–	> 100 µM	–	> 100 µM	–	> 100 µM	–	> 100 µM	–	> 100 µM	–	> 100 µM	–	> 100 µM	–	> 100 µM	–	> 100 µM	–	–
C/C(=N\NC(=S)N1CCC(C2CCN(C(=S)N/N=C(\C)c3ccccn3)CC2)CC1)c1ccccn1	–	> 100 µM	–	> 100 µM	–	–	–	> 100 µM	–	> 100 µM	–	> 100 µM	–	> 100 µM	–	–	–	> 100 µM	–	> 100 µM
Cc1cccc(N2C(=O)/C(=C/c3ccc(N(CCC#N)CCC#N)cc3C)N=C2c2cc([N+](=O)[O-])ccc2Cl)c1	–	> 100 µM	–	> 100 µM	–	> 100 µM	–	> 100 µM	–	> 100 µM	–	> 100 µM	–	> 100 µM	–	> 100 µM	–	> 100 µM	–	–
O=C1/C(=C/c2ccccc2)CN(C(=O)OCC(Cl)(Cl)Cl)C/C1=C\c1ccccc1	–	9.03 µM	–	14 µM	–	10.3 µM	–	–	–	20.5 µM	–	–	–	2.6 µM	–	23.5 µM	–	4.68 µM	–	3.87 µM
CC(C)(C)c1ccc(S(=O)(=O)N[C@H]2CC[C@H]3[C@@H]4CCc5cc(O)ccc5[C@H]4CC[C@]23C)cc1	2.16 µM	5.91 µM	1.7 µM	3.14 µM	2.46 µM	9.53 µM	2.5 µM	7.13 µM	2.14 µM	7.24 µM	–	–	1.63 µM	2.98 µM	2.45 µM	4.89 µM	2.28 µM	5.67 µM	1.61 µM	3.46 µM
